Reference: ChEMBL document CHEMBL6109078, “Pyrylium derivatives as outer membrane permeabilizers against MDR gram-negative bacteria via multi-target mode of action” (Eur J Med Chem, 2025)
Calls of active or inactive are those of the source. The rule behind the calls is not given here.

Legend:
Acinetobacter baumannii [1] = assay: Synergistic antibacterial activity against multi-drug resistant Acinetobacter baumannii clinical isolate 14 assessed as inhibition of bacterial growth by measuring polymyxin B MIC by checkerboard assay; assay type: functional
Escherichia coli [2] = assay: Synergistic antibacterial activity against Escherichia coli ATCC 35218 assessed as inhibition of bacterial growth by measuring polymyxin B MIC by checkerboard assay; assay type: functional
Escherichia coli [3] = assay: Synergistic antibacterial activity against Escherichia coli ATCC 35218 assessed as fractional inhibitory concentration index in presence of polymyxin B by checkerboard assay; assay type: functional
Acinetobacter baumannii [4] = assay: Synergistic antibacterial activity against Acinetobacter baumannii ATCC 19606 assessed as fractional inhibitory concentration index in presence of amikacin by checkerboard assay; assay type: functional
Acinetobacter baumannii [5] = assay: Synergistic antibacterial activity against multi-drug resistant Acinetobacter baumannii clinical isolate 1 assessed as fractional inhibitory concentration index in presence of amikacin by checkerboard assay; assay type: functional
Pseudomonas aeruginosa [6] = assay: Antibacterial activity Pseudomonas aeruginosa ATCC 27853 assessed as inhibition of bacterial growth by CLSI protocol based method; assay type: functional
Escherichia coli [7] = assay: Antibacterial activity against Escherichia coli ATCC 25922 assessed as inhibition of bacterial growth by CLSI protocol based method; assay type: functional
Klebsiella pneumoniae [8] = assay: Synergistic antibacterial activity against Klebsiella pneumoniae assessed as inhibition of bacterial growth in presence of aminoglycoside by checkerboard assay; assay type: functional, organism-based
Acinetobacter baumannii [9] = assay: Synergistic antibacterial activity against Acinetobacter baumannii ATCC 19606 assessed as fractional inhibitory concentration index in presence of polymyxin B by checkerboard assay; assay type: functional
Klebsiella pneumoniae [10] = assay: Antibacterial activity against Klebsiella pneumoniae ATCC 700603 assessed as inhibition of bacterial growth by CLSI protocol based method; assay type: functional
Acinetobacter baumannii [11] = assay: Synergistic antibacterial activity against multi-drug resistant Acinetobacter baumannii clinical isolate 43 assessed as fractional inhibitory concentration index in presence of polymyxin B by checkerboard assay; assay type: functional
Escherichia coli [12] = assay: Synergistic antibacterial activity against Escherichia coli ATCC 25922 assessed as fractional inhibitory concentration index in presence of gentamycin by checkerboard assay; assay type: functional
Klebsiella pneumoniae [13] = assay: Antibacterial activity against Klebsiella pneumoniae BAA ATCC 1706 assessed as inhibition of bacterial growth by CLSI protocol based method; assay type: functional
Acinetobacter baumannii [14] = assay: Synergistic antibacterial activity against multi-drug resistant Acinetobacter baumannii clinical isolate 5 assessed as fractional inhibitory concentration index in presence of amikacin by checkerboard assay; assay type: functional
Acinetobacter baumannii [15] = assay: Synergistic antibacterial activity against Acinetobacter baumannii ATCC 19606 assessed as inhibition of bacterial growth in presence of polymyxin B by checkerboard assay; assay type: functional
Acinetobacter baumannii [16] = assay: Synergistic antibacterial activity against multi-drug resistant Acinetobacter baumannii clinical isolate 1 assessed as inhibition of bacterial growth by measuring polymyxin B MIC by checkerboard assay; assay type: functional
Escherichia coli [17] = assay: Synergistic antibacterial activity against Escherichia coli ATCC 25922 assessed as fractional inhibitory concentration index in presence of amikacin by checkerboard assay; assay type: functional
Acinetobacter baumannii [18] = assay: Synergistic antibacterial activity against multi-drug resistant Acinetobacter baumannii clinical isolate 14 assessed as fractional inhibitory concentration index in presence of gentamycin by checkerboard assay; assay type: functional
Escherichia coli [19] = assay: Synergistic antibacterial activity against Escherichia coli CG-4 expressing MCR-1 and NDM-1 assessed as fractional inhibitory concentration index in presence of […] by checkerboard assay; assay type: functional
Escherichia coli [20] = assay: Synergistic antibacterial activity against Escherichia coli CG-4 expressing MCR-1 and NDM-1 assessed as inhibition of bacterial growth by measuring polymyxin B MIC by checkerboard assay; assay type: functional
Acinetobacter baumannii [21] = assay: Antibacterial activity against Acinetobacter baumannii ATCC 19606 assessed as inhibition of bacterial growth by CLSI protocol based method; assay type: functional
Acinetobacter baumannii [22] = assay: Synergistic antibacterial activity against multi-drug resistant Acinetobacter baumannii clinical isolate 1 assessed as inhibition of bacterial growth in presence of polymyxin B by checkerboard assay; assay type: functional
Escherichia coli [23] = assay: Synergistic antibacterial activity against multi-drug resistant Escherichia coli clinical isolate 1 assessed as fractional inhibitory concentration index in presence of gentamycin by checkerboard assay; assay type: functional
Pseudomonas aeruginosa [24] = assay: Synergistic antibacterial activity against Pseudomonas aeruginosa assessed as inhibition of bacterial growth in presence of polymyxin B by checkerboard assay; assay type: functional, organism-based
Escherichia coli [25] = assay: Synergistic antibacterial activity against Escherichia coli ATCC 35218 assessed as inhibition of bacterial growth in presence of polymyxin B by checkerboard assay; assay type: functional
Escherichia coli [26] = assay: Antibacterial activity against Escherichia coli CG-4 expressing MCR-1 and NDM-1 assessed as inhibition of bacterial growth by CLSI protocol based method; assay type: functional
Escherichia coli [27] = assay: Antibacterial activity against Escherichia coli ATCC 25922 assessed as inhibition of bacterial growth by measuring fold change in MIC incubated for 16 to 18 hrs in presence of LPS; assay type: functional; conditions: time 16-18 hrs
Escherichia coli [28] = assay: Induction of morphological changes in Escherichia coli ATCC 25922 assessed as appearance of filamentous bacterial cells at 6.25 microg/ml incubated for 1 hrs by optical microscopic analysis; assay type: functional, organism-based; conditions: dose 6.25 µg/ml
Cell membrane [29] = assay: Induction of outer membrane damage in Escherichia coli ATCC 25922 assessed as local fractures at 12.5 microg/ml incubated for 1 hrs by TEM analysis; conditions: dose 12.5 µg/ml
Cell membrane [30] = assay: Disruption of outer membrane integrity in Escherichia coli ATCC 25922 assessed as increase in EtBr uptake by fluorescence plate reader analysis
Cell membrane [31] = assay: Induction of outer membrane damage in Escherichia coli ATCC 25922 assessed as local damage at 12.5 microg/ml incubated for 1 hrs by TEM analysis; conditions: dose 12.5 µg/ml
Escherichia coli [32] = assay: Induction of morphological changes in Escherichia coli ATCC 25922 assessed as appearance of longer bacterial cells at 6.25 microg/ml incubated for 1 hrs by optical microscopic analysis; assay type: functional, organism-based; conditions: dose 6.25 µg/ml
Escherichia coli [33] = assay: Antibacterial activity against Escherichia coli ATCC 25922 assessed as bacterial killing at 100 microg/ml measured within 4 to 12 hrs by time-kill kinetics analysis; assay type: functional; conditions: dose 100 µg/ml; time 4-12 hrs
Escherichia coli [34] = assay: Antibacterial activity against Escherichia coli ATCC 25922 infected in Galleria mellonella larvae assessed as survival rate at 50 microg/ml measured 96 hrs post-inoculation relative to control; assay type: functional
Acinetobacter baumannii [35] = assay: Antibacterial activity against Acinetobacter baumannii ATCC 19606 assessed as bacterial killing at 100 microg/ml measured within 4 to 12 hrs by time-kill kinetics analysis; assay type: functional; conditions: dose 100 µg/ml; time 4-12 hrs
[36] = Binding affinity to His-tagged LptC (unknown origin) extracted from Escherichia coli BL21 (DE3) cells assessed as dissociation constant by BLI analysis; set-up: species or system Bacteria
Cell membrane [37] = assay: Induction of outer membrane damage in Escherichia coli ATCC 25922 assessed as accumulation of membrane-like structures near inner membrane at 12.5 microg/ml incubated for 1 hrs by TEM analysis; conditions: dose 12.5 µg/ml
Escherichia coli [38] = assay: Antibacterial activity against Escherichia coli ATCC 25922 assessed as inhibition of bacterial growth by measuring fold increase in MIC incubated for 16 to 18 hrs in presence of Mg2+; assay type: functional; conditions: time 16-18 hrs
Acinetobacter baumannii [39] = assay: Synergistic antibacterial activity against multi-drug resistant Acinetobacter baumannii clinical isolate 14 assessed as fractional inhibitory concentration index in presence of polymyxin B by checkerboard assay; assay type: functional
[40] = Binding affinity to His-tagged LptA (unknown origin) extracted from Escherichia coli BL21 (DE3) cells assessed as dissociation constant by BLI analysis; set-up: species or system Bacteria

## CN1CCOc2cc(/C=C/c3cc(C(C)(C)C)[o+]c(C(C)(C)C)c3)ccc21.O=S(=O)([O-])C(F)(F)F
Acinetobacter baumannii [1]
  MIC: 0.012 µg/mL
Escherichia coli [2]
  MIC: 63 10^-4 ug/ml
Escherichia coli [3]
  fractional inhibitory concentration index (FICI): 0.312
Acinetobacter baumannii [4]
  fractional inhibitory concentration index (FICI): 0.125
Acinetobacter baumannii [5]
  fractional inhibitory concentration index (FICI): 0.125
Pseudomonas aeruginosa [6]
  MIC: > 100 µg/mL
Escherichia coli [7]
  MIC: 50 µg/mL
Klebsiella pneumoniae [8]
  Activity: inactive
Acinetobacter baumannii [9]
  fractional inhibitory concentration index (FICI): 0.25
Klebsiella pneumoniae [10]
  MIC: > 100 µg/mL
Acinetobacter baumannii [11]
  fractional inhibitory concentration index (FICI): <0.25
Escherichia coli [12]
  fractional inhibitory concentration index (FICI): 0.125
Klebsiella pneumoniae [13]
  MIC: > 100 µg/mL
Acinetobacter baumannii [14]
  fractional inhibitory concentration index (FICI): 0.125
Acinetobacter baumannii [15]
  MIC: 6.25 µg/mL
Acinetobacter baumannii [16]
  MIC: 0.05 µg/mL
Escherichia coli [17]
  fractional inhibitory concentration index (FICI): 0.125
Acinetobacter baumannii [18]
  fractional inhibitory concentration index (FICI): 0.125
Escherichia coli [19]
  fractional inhibitory concentration index (FICI): 0.125
Escherichia coli [20]
  MIC: 0.031 µg/mL
Acinetobacter baumannii [21]
  MIC: 50 µg/mL
Acinetobacter baumannii [22]
  MIC: 12.5 µg/mL
Escherichia coli [23]
  fractional inhibitory concentration index (FICI): 0.125
Pseudomonas aeruginosa [24]
  Activity: inactive
Escherichia coli [25]
  MIC: 6.25 µg/mL
Escherichia coli [26]
  MIC: 25 µg/mL

## CC(C)(C)c1cc(/C=C/c2ccc(N3CCCC3)cc2)cc(C(C)(C)C)[o+]1.O=S(=O)([O-])C(F)(F)F
Acinetobacter baumannii [1]
  MIC: 0.024 µg/mL
Escherichia coli [2]
  MIC: 63 10^-4 ug/ml
Escherichia coli [27]
  fold change (FC): 2
Escherichia coli [3]
  fractional inhibitory concentration index (FICI): 0.375
Acinetobacter baumannii [4]
  fractional inhibitory concentration index (FICI): 0.125
Escherichia coli [28]
  Activity: Active
Acinetobacter baumannii [5]
  fractional inhibitory concentration index (FICI): 0.125
Cell membrane [29]
  Activity: Active
Pseudomonas aeruginosa [6]
  MIC: > 100 µg/mL
Cell membrane [30]
  Activity: Dose-dependent-effect
Escherichia coli [7]
  MIC: 12.5 µg/mL
Klebsiella pneumoniae [8]
  Activity: inactive
Acinetobacter baumannii [9]
  fractional inhibitory concentration index (FICI): 0.156
Cell membrane [31]
  Activity: Active
Escherichia coli [32]
  Activity: Active
Klebsiella pneumoniae [10]
  MIC: > 100 µg/mL
Acinetobacter baumannii [11]
  fractional inhibitory concentration index (FICI): 0.5
Escherichia coli [12]
  fractional inhibitory concentration index (FICI): 0.125
Klebsiella pneumoniae [13]
  MIC: > 100 µg/mL
Acinetobacter baumannii [14]
  fractional inhibitory concentration index (FICI): 0.125
Acinetobacter baumannii [15]
  MIC: 1.56 µg/mL
Acinetobacter baumannii [16]
  MIC: 1.56 µg/mL
Escherichia coli [33]
  Activity: 100%
Escherichia coli [17]
  fractional inhibitory concentration index (FICI): 0.125
Acinetobacter baumannii [18]
  fractional inhibitory concentration index (FICI): 0.125
Escherichia coli [34]
  survival at 50 µg/mL: 40%
Escherichia coli [19]
  fractional inhibitory concentration index (FICI): 0.125
Escherichia coli [20]
  MIC: 0.39 µg/mL
Acinetobacter baumannii [35]
  Activity: 100%
[36]
  Kd: 63.7 µM
Acinetobacter baumannii [21]
  MIC: 12.5 µg/mL
Acinetobacter baumannii [22]
  MIC: 3.12 µg/mL
Cell membrane [37]
  Activity: Active
Escherichia coli [23]
  fractional inhibitory concentration index (FICI): 0.125
Escherichia coli [38]
  fold change (FC): 2
Acinetobacter baumannii [39]
  fractional inhibitory concentration index (FICI): 0.313
Pseudomonas aeruginosa [24]
  Activity: inactive
Escherichia coli [25]
  MIC: 3.13 µg/mL
Escherichia coli [26]
  MIC: 6.25 µg/mL
[40]
  Kd: 15 µM

## CCN(CC)c1ccc(/C=C/c2cc(C(C)(C)C)[o+]c(C(C)(C)C)c2)cc1.O=S(=O)([O-])C(F)(F)F
Acinetobacter baumannii [1]
  MIC: 0.006 µg/mL
Escherichia coli [2]; Escherichia coli, ATCC 35218, read-out: MIC
  MIC: 0.013 µg/mL
Escherichia coli [27]
  fold change (FC): 2
Escherichia coli [3]
  fractional inhibitory concentration index (FICI): 0.375
Acinetobacter baumannii [4]
  fractional inhibitory concentration index (FICI): 0.125
Escherichia coli [28]
  Activity: Active
Acinetobacter baumannii [5]
  fractional inhibitory concentration index (FICI): 0.125
Cell membrane [29]
  Activity: Active
Pseudomonas aeruginosa [6]
  MIC: > 100 µg/mL
Cell membrane [30]
  Activity: Dose-dependent-effect
Escherichia coli [7]
  MIC: 6.25 µg/mL
Klebsiella pneumoniae [8]
  Activity: inactive
Acinetobacter baumannii [9]
  fractional inhibitory concentration index (FICI): 0.188
Cell membrane [31]
  Activity: Active
Escherichia coli [32]
  Activity: Active
Klebsiella pneumoniae [10]
  MIC: > 100 µg/mL
Acinetobacter baumannii [11]
  fractional inhibitory concentration index (FICI): 0.5
Escherichia coli [12]
  fractional inhibitory concentration index (FICI): 0.125
Klebsiella pneumoniae [13]
  MIC: 12.5 µg/mL
Acinetobacter baumannii [14]
  fractional inhibitory concentration index (FICI): 0.125
Acinetobacter baumannii [15]
  MIC: 0.78 µg/mL
Acinetobacter baumannii [16]
  MIC: 0.2 µg/mL
Escherichia coli [33]
  Activity: 100%
Escherichia coli [17]
  fractional inhibitory concentration index (FICI): 0.125
Acinetobacter baumannii [18]
  fractional inhibitory concentration index (FICI): 0.125
Escherichia coli [34]
  survival at 50 µg/mL: 40%
Escherichia coli [19]
  fractional inhibitory concentration index (FICI): 0.125
Escherichia coli [20]
  MIC: 0.78 µg/mL
Acinetobacter baumannii [35]
  Activity: 100%
[36]
  Kd: 0.49 µM
Acinetobacter baumannii [21]
  MIC: 12.5 µg/mL
Acinetobacter baumannii [22]
  MIC: 1.56 µg/mL
Cell membrane [37]
  Activity: Active
Escherichia coli [23]
  fractional inhibitory concentration index (FICI): 0.125
Escherichia coli [38]
  fold change (FC): 2
Acinetobacter baumannii [39]
  fractional inhibitory concentration index (FICI): 0.141
Pseudomonas aeruginosa [24]
  Activity: inactive
Escherichia coli [25]
  MIC: 1.56 µg/mL
Escherichia coli [26]
  MIC: 12.5 µg/mL
[40]
  Kd: 0.48 µM
